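48-hour exposure; five concentrations; linearly interpolated endpoints. At the GI50, growth is halved.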 Activity calls are given as the source filed them. Rule as the data show it: active = GI50 up to about 1.1 µM and inactive = higher.
Assays:
Assay in all cases: NCI tumour cell line growth inhibition, 48 h
UACC-257 = test system: UACC-257
OVCAR-5 = test system: OVCAR-5
DMS-273 = test system: DMS-273
TK-10 = test system: TK-10
SNB-75 = test system: SNB-75
HL-60 = test system: HL-60
UACC-62 = test system: UACC-62
786-0 = test system: 786-0
LOX IMVI = test system: LOX IMVI
OVCAR-3 = test system: OVCAR-3
CAKI-1 = test system: CAKI-1
SW-620 = test system: SW-620
UO-31 = test system: UO-31
RXF 631 = test system: RXF 631
OVCAR-8 = test system: OVCAR-8
NCI-H522 = test system: NCI-H522
RPMI-8226 = test system: RPMI-8226
LXFL 529 = test system: LXFL 529
KM12 = test system: KM12
A549 = test system: A549
HOP-92 = test system: HOP-92
SK-OV-3 = test system: SK-OV-3
SF-295 = test system: SF-295
HCT-15 = test system: HCT-15
DLD-1 = test system: DLD-1
SNB-19 = test system: SNB-19
IGROV-1 = test system: IGROV-1
ACHN = test system: ACHN
A498 = test system: A498
EKVX = test system: EKVX
HCC 2998 = test system: HCC 2998
U-251 = test system: U-251
Malme-3M = test system: Malme-3M
SF-268 = test system: SF-268
SK-MEL-28 = test system: SK-MEL-28
SK-MEL-2 = test system: SK-MEL-2
KM-20L2 = test system: KM-20L2
K562 = test system: K562
SF-539 = test system: SF-539
HCT-116 = test system: HCT-116
MOLT-4 = test system: MOLT-4
CCRF-CEM = test system: CCRF-CEM
NCI-H226 = test system: NCI-H226
SNB-78 = test system: SNB-78
XF498 = test system: XF498
NCI-H23 = test system: NCI-H23
RXF 393 = test system: RXF 393
SN12C = test system: SN12C
M19-MEL = test system: M19-MEL
SK-MEL-5 = test system: SK-MEL-5
COLO 205 = test system: COLO 205
HT-29 = test system: HT-29
M14 = test system: M14
HOP-18 = test system: HOP-18
OVCAR-4 = test system: OVCAR-4
NCI-H460 = test system: NCI-H460
HOP-62 = test system: HOP-62
MDA-MB-435 = test system: MDA-MB-435
BT-549 = test system: BT-549
Hs-578T = test system: Hs-578T
DU-145 = test system: DU-145
DMS-114 = test system: DMS-114
SR = test system: SR
MDA-MB-231 = test system: MDA-MB-231
T47D = test system: T47D
MDA-N = test system: MDA-N
MCF7 = test system: MCF7
NCI/ADR-RES = test system: NCI/ADR-RES
PC-3 = test system: PC-3

SMILES: CN(C)C(=S)/N=c1\ssc(=S)n1Cc1ccccn1
- GI50 (UACC-257): 4.1 µM (inactive)
- GI50 (OVCAR-5): > 100 µM (inactive)
- GI50 (DMS-273): 1.64 µM (inactive)
- GI50 (TK-10): 7.55 µM (inactive)
- GI50 (SNB-75): 4.48 µM (inactive)
- GI50 (HL-60): 3.19 µM (inactive)
- GI50 (UACC-62): 2.41 µM (inactive)
- GI50 (786-0): 4.24 µM (inactive)
- GI50 (LOX IMVI): 5.06 µM (inactive)
- GI50 (OVCAR-3): 2.52 µM (inactive)
- GI50 (CAKI-1): 6.93 µM (inactive)
- GI50 (SW-620): 2.7 µM (inactive)
- GI50 (UO-31): 3.7 µM (inactive)
- GI50 (RXF 631): 3.7 µM (inactive)
- GI50 (OVCAR-8): 4.54 µM (inactive)
- GI50 (NCI-H522): 0.859 µM (active)
- GI50 (RPMI-8226): 2.31 µM (inactive)
- GI50 (LXFL 529): 3.9 µM (inactive)
- GI50 (KM12): 1.14 µM (inactive)
- GI50 (A549): 3.85 µM (inactive)
- GI50 (HOP-92): 4.12 µM (inactive)
- GI50 (SK-OV-3): 4.67 µM (inactive)
- GI50 (SF-295): 3.8 µM (inactive)
- GI50 (HCT-15): 2.01 µM
- GI50 (DLD-1): 4.45 µM (inactive)
- GI50 (SNB-19): 6.55 µM (inactive)
- GI50 (IGROV-1): 7.29 µM (inactive)
- GI50 (ACHN): 8.24 µM (inactive)
- GI50 (A498): 4.84 µM (inactive)
- GI50 (EKVX): 3.89 µM (inactive)
- GI50 (HCC 2998): 4.92 µM (inactive)
- GI50 (U-251): 3.89 µM (inactive)
- GI50 (Malme-3M): 2.49 µM (inactive)
- GI50 (SF-268): 6 µM (inactive)
- GI50 (SK-MEL-28): 4.65 µM (inactive)
- GI50 (SK-MEL-2): 1.94 µM (inactive)
- GI50 (KM-20L2): 1.94 µM (inactive)
- GI50 (K562): 0.748 µM (active)
- GI50 (SF-539): 4.49 µM (inactive)
- GI50 (HCT-116): 2.87 µM (inactive)
- GI50 (MOLT-4): 3.11 µM (inactive)
- GI50 (CCRF-CEM): 10.7 µM (inactive)
- GI50 (NCI-H226): 6.5 µM (inactive)
- GI50 (SNB-78): 30.2 µM (inactive)
- GI50 (XF498): 8.95 µM (inactive)
- GI50 (NCI-H23): 3.62 µM (inactive)
- GI50 (RXF 393): 3.01 µM (inactive)
- GI50 (SN12C): 7.03 µM (inactive)
- GI50 (M19-MEL): 2.36 µM (inactive)
- GI50 (SK-MEL-5): 3.52 µM (inactive)
- GI50 (COLO 205): 2.75 µM (inactive)
- GI50 (HT-29): 2.78 µM (inactive)
- GI50 (M14): 2.55 µM (inactive)
- GI50 (HOP-18): 9.38 µM (inactive)
- GI50 (OVCAR-4): 14 µM (inactive)
- GI50 (NCI-H460): 2.93 µM (inactive)
- GI50 (HOP-62): 10.6 µM (inactive)

SMILES: CCCCC/C=C1\CCC(CN2CCOCC2)C1=O (stereo unspecified)
- GI50 (UACC-257): 9.79 µM (inactive)
- GI50 (OVCAR-5): 18.6 µM (inactive)
- GI50 (TK-10): 7.59 µM (inactive)
- GI50 (SNB-75): 14.8 µM (inactive)
- GI50 (HL-60): 2.26 µM (inactive)
- GI50 (UACC-62): 12.4 µM (inactive)
- GI50 (786-0): 2.58 µM (inactive)
- GI50 (MDA-MB-435): 5.25 µM (inactive)
- GI50 (LOX IMVI): 4.84 µM (inactive)
- GI50 (OVCAR-3): 5.9 µM (inactive)
- GI50 (CAKI-1): 5.28 µM (inactive)
- GI50 (SW-620): 3.2 µM (inactive)
- GI50 (UO-31): 12.4 µM (inactive)
- GI50 (BT-549): 14.7 µM (inactive)
- GI50 (RXF 631): 12.1 µM (inactive)
- GI50 (OVCAR-8): 7.26 µM (inactive)
- GI50 (Hs-578T): 4.25 µM (inactive)
- GI50 (NCI-H522): 2.43 µM (inactive)
- GI50 (RPMI-8226): 0.449 µM (active)
- GI50 (DU-145): 14.6 µM (inactive)
- GI50 (DMS-114): 13.6 µM (inactive)
- GI50 (LXFL 529): 5.32 µM (inactive)
- GI50 (KM12): 3.49 µM (inactive)
- GI50 (A549): 20.7 µM (inactive)
- GI50 (HOP-92): 15.7 µM (inactive)
- GI50 (SK-OV-3): 18.5 µM (inactive)
- GI50 (SR): 3.52 µM (inactive)
- GI50 (SF-295): 16.8 µM (inactive)
- GI50 (HCT-15): 5.32 µM
- GI50 (DLD-1): 5.94 µM (inactive)
- GI50 (SNB-19): 16.8 µM (inactive)
- GI50 (IGROV-1): 13.8 µM (inactive)
- GI50 (ACHN): 15.5 µM (inactive)
- GI50 (A498): 17.7 µM (inactive)
- GI50 (EKVX): 17.5 µM (inactive)
- GI50 (HCC 2998): 12.5 µM (inactive)
- GI50 (U-251): 10.8 µM (inactive)
- GI50 (MDA-MB-231): 4.7 µM (inactive)
- GI50 (Malme-3M): 9.62 µM (inactive)
- GI50 (T47D): 2.72 µM (inactive)
- GI50 (SF-268): 12.2 µM (inactive)
- GI50 (SK-MEL-28): 7.91 µM (inactive)
- GI50 (MDA-N): 8.24 µM (inactive)
- GI50 (MCF7): 1.6 µM (inactive)
- GI50 (SK-MEL-2): 13.7 µM (inactive)
- GI50 (KM-20L2): 13.8 µM (inactive)
- GI50 (K562): 2.36 µM (inactive)
- GI50 (SF-539): 14.8 µM (inactive)
- GI50 (HCT-116): 9.35 µM (inactive)
- GI50 (MOLT-4): 2.43 µM (inactive)
- GI50 (CCRF-CEM): 2.9 µM (inactive)
- GI50 (NCI-H226): 16.9 µM (inactive)
- GI50 (SNB-78): 12.6 µM (inactive)
- GI50 (XF498): 17.4 µM (inactive)
- GI50 (NCI-H23): 11.2 µM (inactive)
- GI50 (RXF 393): 5.66 µM (inactive)
- GI50 (SN12C): 15.2 µM (inactive)
- GI50 (NCI/ADR-RES): 3.94 µM (inactive)
- GI50 (M19-MEL): 19 µM (inactive)
- GI50 (SK-MEL-5): 15.4 µM (inactive)
- GI50 (PC-3): 16.9 µM (inactive)
- GI50 (COLO 205): 3.67 µM (inactive)
- GI50 (HT-29): 10.9 µM (inactive)
- GI50 (M14): 6.7 µM (inactive)
- GI50 (HOP-18): 14.2 µM (inactive)
- GI50 (OVCAR-4): 16.2 µM (inactive)
- GI50 (NCI-H460): 22.1 µM (inactive)
- GI50 (HOP-62): 23.1 µM (inactive)

SMILES: Cc1ccc(C)c(NC(=O)C(=O)Nn2c(S)nc3ccccc3c2=O)c1
- GI50 (UACC-257): > 100 µM (inactive)
- GI50 (OVCAR-5): > 100 µM (inactive)
- GI50 (DMS-273): > 100 µM (inactive)
- GI50 (TK-10): > 100 µM (inactive)
- GI50 (SNB-75): > 100 µM (inactive)
- GI50 (HL-60): > 100 µM (inactive)
- GI50 (UACC-62): > 100 µM (inactive)
- GI50 (786-0): > 100 µM (inactive)
- GI50 (LOX IMVI): > 100 µM (inactive)
- GI50 (CAKI-1): > 100 µM (inactive)
- GI50 (SW-620): > 100 µM (inactive)
- GI50 (UO-31): > 100 µM (inactive)
- GI50 (RXF 631): > 100 µM (inactive)
- GI50 (OVCAR-8): > 100 µM (inactive)
- GI50 (NCI-H522): > 100 µM (inactive)
- GI50 (RPMI-8226): > 100 µM (inactive)
- GI50 (DMS-114): > 100 µM (inactive)
- GI50 (LXFL 529): > 100 µM (inactive)
- GI50 (KM12): > 100 µM (inactive)
- GI50 (A549): > 100 µM (inactive)
- GI50 (HOP-92): > 100 µM (inactive)
- GI50 (SK-OV-3): > 100 µM (inactive)
- GI50 (SR): > 100 µM (inactive)
- GI50 (SF-295): > 100 µM (inactive)
- GI50 (HCT-15): > 100 µM
- GI50 (DLD-1): > 100 µM (inactive)
- GI50 (SNB-19): > 100 µM (inactive)
- GI50 (IGROV-1): > 100 µM (inactive)
- GI50 (ACHN): > 100 µM (inactive)
- GI50 (A498): > 100 µM (inactive)
- GI50 (EKVX): 71.3 µM (inactive)
- GI50 (HCC 2998): > 100 µM (inactive)
- GI50 (U-251): > 100 µM (inactive)
- GI50 (Malme-3M): > 100 µM (inactive)
- GI50 (SF-268): > 100 µM (inactive)
- GI50 (SK-MEL-28): > 100 µM (inactive)
- GI50 (SK-MEL-2): > 100 µM (inactive)
- GI50 (KM-20L2): > 100 µM (inactive)
- GI50 (K562): > 100 µM (inactive)
- GI50 (SF-539): > 100 µM (inactive)
- GI50 (HCT-116): > 100 µM (inactive)
- GI50 (MOLT-4): > 100 µM (inactive)
- GI50 (CCRF-CEM): > 100 µM (inactive)
- GI50 (NCI-H226): > 100 µM (inactive)
- GI50 (SNB-78): > 100 µM (inactive)
- GI50 (NCI-H23): > 100 µM (inactive)
- GI50 (RXF 393): > 100 µM (inactive)
- GI50 (SN12C): > 100 µM (inactive)
- GI50 (SK-MEL-5): > 100 µM (inactive)
- GI50 (COLO 205): > 100 µM (inactive)
- GI50 (HT-29): > 100 µM (inactive)
- GI50 (M14): > 100 µM (inactive)
- GI50 (HOP-18): > 100 µM (inactive)
- GI50 (OVCAR-4): > 100 µM (inactive)
- GI50 (NCI-H460): > 100 µM (inactive)
- GI50 (HOP-62): > 100 µM (inactive)

— ChEMBL document CHEMBL1201862, “PubChem BioAssay data set” (2004)
